Laboratory results reported in the CheMixHub ionic liquid set.

Assay: xn = mol fraction of the nth substance listed

CC(=O)Oc1ccccc1C(=O)O + CC#N + CCCCCC[n+]1ccn(C)c1.[Br-]
viscosity [mPa·s], 101 kPa
Conditions	288.15 K	298.15 K	308.15 K	318.15 K
x1 = 0.001647, x3 = 0	0.394	0.349	0.316	0.292
x1 = 0.001682, x3 = 0.004167	0.408	0.37	0.336	0.309
x1 = 0.001814, x3 = 0.0117	0.434	0.393	0.372	0.343
x1 = 0.001864, x3 = 0.008116	0.431	0.388	0.353	0.324
x1 = 0.00335, x3 = 0.00416	0.412	0.373	0.34	0.313
x1 = 0.003412, x3 = 0	0.398	0.353	0.319	0.295
x1 = 0.003448, x3 = 0.01168	0.437	0.396	0.376	0.346
x1 = 0.003521, x3 = 0.008102	0.435	0.391	0.356	0.327
x1 = 0.004495, x3 = 0	0.402	0.355	0.322	0.297
x1 = 0.004647, x3 = 0.004154	0.416	0.376	0.343	0.315
x1 = 0.004832, x3 = 0.01167	0.441	0.399	0.38	0.349
x1 = 0.004834, x3 = 0.008092	0.438	0.395	0.359	0.33
x1 = 0.00569, x3 = 0	0.405	0.358	0.325	0.3
x1 = 0.005813, x3 = 0.004149	0.42	0.38	0.346	0.317
x1 = 0.005963, x3 = 0.008083	0.441	0.398	0.363	0.333
x1 = 0.006109, x3 = 0.01165	0.444	0.402	0.383	0.352
x1 = 0.006963, x3 = 0	0.408	0.362	0.328	0.303
x1 = 0.007083, x3 = 0.004144	0.423	0.383	0.349	0.32
x1 = 0.007249, x3 = 0.008072	0.444	0.401	0.366	0.335
x1 = 0.007314, x3 = 0.01164	0.448	0.406	0.386	0.355
x1 = 0.00845, x3 = 0	0.412	0.365	0.331	0.306
x1 = 0.008753, x3 = 0.004137	0.428	0.387	0.354	0.324
x1 = 0.008914, x3 = 0.008059	0.448	0.405	0.369	0.339
x1 = 0.00934, x2 = 0.979	0.452	0.41	0.39	0.359
x1 = 0.009969, x3 = 0	0.416	0.369	0.334	0.309
x1 = 0.009979, x3 = 0.004132	0.432	0.39	0.356	0.327
x1 = 0.01021, x2 = 0.9782	0.455	0.412	0.392	0.361
x1 = 0.01031, x3 = 0.008047	0.451	0.408	0.372	0.342
x1 = 0.01098, x3 = 0	0.419	0.371	0.337	0.311
x1 = 0.01114, x3 = 0.004127	0.436	0.393	0.359	0.33
x1 = 0.01158, x3 = 0.008037	0.454	0.411	0.375	0.345
x1 = 0.01173, x2 = 0.9767	0.458	0.416	0.396	0.364
x1 = 0.01219, x3 = 0	0.422	0.375	0.34	0.314
x1 = 0.0126, x3 = 0.004121	0.44	0.396	0.362	0.333
x1 = 0.01261, x2 = 0.9794	0.458	0.414	0.378	0.348
x1 = 0.01337, x2 = 0.9751	0.462	0.42	0.4	0.368

COCCCC[n+]1ccn(C)c1.NCC(=O)[O-] + CS(C)=O
100 kPa
Conditions	viscosity [mPa·s]
288.15 K, x1 = 0.4986	49.18
293.15 K, x1 = 0.4986	37.24
293.15 K, x1 = 0.6006	51.07
293.15 K, x1 = 0.7941	84.3
298.15 K, x1 = 0.7941	65.57
298.15 K, x1 = 1	97.2
303.15 K, x1 = 0.1009	4.18
303.15 K, x1 = 0.299	10.12
308.15 K, x1 = 0.1009	3.59
308.15 K, x1 = 0.299	8.41
308.15 K, x1 = 0.701	34.9
318.15 K, x1 = 0.1009	2.72

c1ccccc1 + CCCC[n+]1ccn(C)c1.N#C[S-]
100 kPa, x1 = 1
Conditions	viscosity [mPa·s]
298.15 K	0.605
308.15 K	0.527
318.15 K	0.466
328.15 K	0.363
